The results in this text go back to ChEMBL document CHEMBL1201862, “PubChem BioAssay data set” (2004).

Where “and” joins values, the source holds several entries; their conditions need not be identical. Equal entries are not always repeated.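 Method: 48-hour compound exposure of cells in 96-well plates, five concentrations, linear interpolation of endpoints. GI50: concentration for 50% inhibition of growth.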 Calls of active or inactive are those of the source. No stated cut-off is given here; in the data, active = GI50 up to about 1.1 µM and inactive = higher.

By GI50 is commonly meant the concentration that inhibits growth by half.

Test systems include TK-10; NCI-H460; NCI-H522; 786-0; M14; SNB-75; CAKI-1; SK-OV-3; UACC-62; CCRF-CEM; SF-539; DMS-114; U-251; HCT-15; OVCAR-3; HCT-116; RXF 393.
Experiment in all cases: DTP human tumour cell line panel, 48 h

Turning to `Cc1cc(N(CCC#N)CCC#N)ccc1/C=C1\N=C(c2cc([N+](=O)[O-])ccc2Cl)N(c2cccc(Cl)c2)C1=O`, the GI50 with TK-10 was > 100 µM (inactive); in the experiment on NCI-H460, > 100 µM (inactive); in the experiment on NCI-H522 it was 58.6 µM (inactive); with 786-0 it was > 100 µM (inactive); in the experiment with M14, > 100 µM (inactive); with SNB-75, > 100 µM (inactive). Also, the GI50 is 3.08 µM (inactive) in the experiment with CAKI-1; > 100 µM (inactive) with SK-OV-3; > 100 µM (inactive) with UACC-62; 71.6 µM (inactive) with CCRF-CEM; > 100 µM (inactive) with SF-539; > 100 µM (inactive) in the experiment with DMS-114. Moreover, the GI50 in the experiment on U-251 is > 100 µM (inactive); with HCT-15, greater than 100 µM; in the experiment on OVCAR-3 it was > 100 µM (inactive); with HCT-116 it was > 100 µM (inactive).

On to `O=C(O)Cn1c(=O)[nH]c(=O)c2c1ncn2Cc1ccccc1`, for which the GI50 in the experiment with TK-10, in the experiment on NCI-H460, in the experiment on NCI-H522, in the experiment on 786-0, in the experiment on M14 and in the experiment on SNB-75 was > 100 µM (inactive) in each case. In addition, the GI50 in the experiment with CAKI-1, in the experiment on SK-OV-3, with UACC-62, in the experiment with CCRF-CEM, in the experiment with SF-539 and in the experiment on DMS-114 was > 100 µM (inactive) in each case. The GI50 in the experiment on U-251 is > 100 µM (inactive); in the experiment on HCT-15, greater than 100 µM; with OVCAR-3, > 100 µM (inactive); with HCT-116, > 100 µM (inactive).

Consider `CC(C)OP(=S)(NC(=S)c1ccccc1)OC(C)C`, for which the GI50 is > 100 µM (inactive) with TK-10; 59 µM (inactive) in the experiment on NCI-H460; > 100 µM (inactive) with 786-0; > 100 µM (inactive) in the experiment with M14; > 100 µM (inactive) with SNB-75; > 100 µM (inactive) in the experiment on CAKI-1. In addition, the GI50 with SK-OV-3 is > 100 µM (inactive); with UACC-62, > 100 µM (inactive); with CCRF-CEM, > 100 µM (inactive); in the experiment on SF-539, > 100 µM (inactive); in the experiment with DMS-114, 78 µM (inactive); with U-251, > 100 µM (inactive). Also, the concentration for 50% growth inhibition (GI50) in the experiment with HCT-15 was greater than 100 µM; in the experiment on OVCAR-3, > 100 µM (inactive); in the experiment with HCT-116, > 100 µM (inactive).

In the case of `C=CCN1/C(=C2\SC(=S)N(c3ccc(C)cc3)C2=O)Sc2c1nc[nH]c2=O`, the GI50 is > 100 µM (inactive) in the experiment with TK-10; > 100 µM (inactive) in the experiment on NCI-H460; 59.2 µM (inactive) in the experiment with NCI-H522; > 100 µM (inactive) in the experiment on 786-0; > 100 µM (inactive) in the experiment on M14; > 100 µM (inactive) in the experiment on CAKI-1. The GI50 in the experiment on SK-OV-3 was > 100 µM (inactive); in the experiment on UACC-62 it was > 100 µM (inactive); in the experiment on CCRF-CEM it was > 100 µM (inactive); in the experiment with SF-539, 48.3 µM (inactive); in the experiment with DMS-114, 76.9 µM (inactive); in the experiment with U-251, 79.8 µM (inactive). In addition, the concentration for 50% growth inhibition (GI50) is 47 µM in the experiment with HCT-15, > 100 µM (inactive) with OVCAR-3, > 100 µM (inactive) in the experiment on HCT-116 and 26.4 µM (inactive) with RXF 393.

Regarding `COc1ccc(/C=c2/sc3n(c2=O)NC(c2ccc(Cl)cc2)NN=3)cc1` (centres undefined), the GI50 in the experiment on TK-10 is > 100 µM (inactive); with NCI-H460 it was > 100 µM (inactive); in the experiment on NCI-H522 it was > 100 µM (inactive); with 786-0, > 100 µM (inactive); in the experiment with M14, > 100 µM (inactive); in the experiment with SNB-75, 23.1 µM (inactive). The GI50 in the experiment on CAKI-1 is > 100 µM (inactive); in the experiment with SK-OV-3, > 100 µM (inactive); in the experiment on UACC-62, > 100 µM (inactive); in the experiment with CCRF-CEM, > 100 µM (inactive); with SF-539 it was > 100 µM (inactive); in the experiment on DMS-114, 58.5 µM (inactive). In addition, the GI50 in the experiment on U-251, in the experiment on OVCAR-3, with HCT-116 and in the experiment with RXF 393 was > 100 µM (inactive) throughout.

For the molecule `COc1nc(/C=N/NC(N)=S)nc(OC)n1`, the GI50 with TK-10 was > 100 µM (inactive); with NCI-H460, 43.5 µM (inactive); with NCI-H522, 75.5 µM (inactive); with 786-0, 58.3 µM (inactive); with M14 it was 55.1 µM (inactive); in the experiment on SNB-75, 32.7 µM (inactive). Besides, the GI50 in the experiment with CAKI-1 is 78.5 µM (inactive); in the experiment with SK-OV-3, > 100 µM (inactive); in the experiment on UACC-62 it was 35.3 µM (inactive); with SF-539, 32.4 µM (inactive); in the experiment with DMS-114, 47.5 µM (inactive); with U-251, 54.8 µM (inactive). Also, the GI50 was > 100 µM (inactive) in the experiment with OVCAR-3, 64.4 µM (inactive) in the experiment with HCT-116 and > 100 µM (inactive) in the experiment with RXF 393.

For the molecule `CCCCCC(=O)Cc1cc(OC)cc2c1C(=O)Oc1cc(O)c(C(=O)O)c(CC(=O)CCCCC)c1O2`, the GI50 is 63.4 µM (inactive) in the experiment on TK-10; 52.5 µM (inactive) with NCI-H460; 46.3 µM (inactive) in the experiment with NCI-H522; 18.9 µM (inactive) in the experiment on 786-0; 63.2 µM (inactive) in the experiment on M14; 55.7 µM (inactive) in the experiment with SNB-75. Also, the GI50 is > 100 µM (inactive) with CAKI-1; 46.9 µM (inactive) in the experiment on SK-OV-3; 20.6 µM (inactive) with UACC-62; 40.7 µM (inactive) in the experiment on CCRF-CEM; > 10 µM (inactive) in the experiment with SF-539; 33.9 µM (inactive) with DMS-114. In addition, the results for the GI50 with U-251, in the experiment with OVCAR-3 and with HCT-116 were 15.8 µM (inactive), 24 µM (inactive) and 26 µM (inactive), respectively.

As for `COC(=O)CC(C(C(C)=O)C(=O)OCc1ccccc1)N1C(=O)OC(c2ccccc2)C1c1ccccc1` (centres undefined), the GI50 was > 100 µM (inactive) in the experiment with TK-10; > 100 µM (inactive) in the experiment on NCI-H460; 38.3 µM (inactive) and 22.9 µM (inactive) with NCI-H522; > 100 µM (inactive) with 786-0; 81.1 µM (inactive) and 83.4 µM (inactive) in the experiment with CAKI-1; > 100 µM (inactive) in the experiment on SK-OV-3. For the same molecule, the GI50 in the experiment on UACC-62 is 41.1 µM (inactive) and 45.4 µM (inactive); in the experiment on CCRF-CEM, 72.4 µM (inactive) and 73.8 µM (inactive); in the experiment with DMS-114 it was 30.5 µM (inactive) and 39.4 µM (inactive); in the experiment on U-251, 96.6 µM (inactive) and 75.5 µM (inactive); with HCT-15 it was 52.2 µM and 62.5 µM; with OVCAR-3 it was 29.6 µM (inactive) and 17.4 µM (inactive). In addition, in the experiment with HCT-116, the GI50 is 39.3 µM (inactive) and 24.2 µM (inactive).

In the case of `Cc1nc(-c2nc(C)c(C(=O)NNC(=O)C[n+]3ccccc3)s2)sc1C(=O)NNC(=O)C[n+]1ccccc1`, the GI50 in the experiment on TK-10 is > 100 µM (inactive); in the experiment on NCI-H460, > 100 µM (inactive); in the experiment on 786-0, 35.9 µM (inactive); in the experiment with M14, > 100 µM (inactive); in the experiment with SNB-75, 25.5 µM (inactive); with CAKI-1, 18.6 µM (inactive). Besides, the GI50 is 87.5 µM (inactive) with SK-OV-3; > 100 µM (inactive) in the experiment on UACC-62; 41.3 µM (inactive) in the experiment with CCRF-CEM; 37.8 µM (inactive) in the experiment with SF-539; 66.8 µM (inactive) in the experiment with DMS-114; 79.4 µM (inactive) in the experiment with U-251. For the same molecule, the GI50 is 56.4 µM in the experiment with HCT-15, 90.2 µM (inactive) with OVCAR-3, 47 µM (inactive) with HCT-116 and 39.5 µM (inactive) with RXF 393.

`COC1/C(=C\C(=O)OC(C)(C)C)c2ccccc2N1C(C)=O` (centres undefined): the GI50 in the experiment with NCI-H460, in the experiment with 786-0, in the experiment with M14, with SNB-75, with CAKI-1 and in the experiment with SK-OV-3 was > 100 µM (inactive) in each case. The GI50 with UACC-62 is > 100 µM (inactive); with CCRF-CEM, > 100 µM (inactive); in the experiment on SF-539, > 100 µM (inactive); in the experiment with DMS-114, 54.3 µM (inactive); with U-251, > 100 µM (inactive); with HCT-15, greater than 100 µM. The results for the GI50 with OVCAR-3, with HCT-116 and in the experiment on RXF 393 were > 100 µM (inactive), > 100 µM (inactive) and 26.6 µM (inactive), respectively.

On to `Nc1ncnc2c1ncn2C1CC(OCc2ccccc2[N+](=O)[O-])C(CO)O1` (centres undefined), for which the GI50 is 30.8 µM (inactive) with TK-10; 20.1 µM (inactive) in the experiment on NCI-H460; 13.7 µM (inactive) in the experiment with NCI-H522; 43.4 µM (inactive) in the experiment with 786-0; 15.6 µM (inactive) with M14; 21.7 µM (inactive) with SK-OV-3. The GI50 in the experiment on CCRF-CEM was 16.7 µM (inactive); with SF-539, 44.5 µM (inactive); in the experiment with DMS-114, 16.4 µM (inactive); in the experiment with U-251 it was 24.2 µM (inactive); in the experiment on HCT-15, 21.8 µM; with OVCAR-3, 30.1 µM (inactive). The GI50 is 17.4 µM (inactive) in the experiment with HCT-116 and 5.38 µM (inactive) in the experiment on RXF 393.

With `C1=Cc2nc1c(-c1ccccc1)c1nc(c(-c3ccccc3)c3ccc([nH]3)c(-c3ccccc3)c3ccc([nH]3)c2-c2ccccc2)C=C1` [TETRAPHENYLPORPHYRIN], the GI50 in the experiment on TK-10, with NCI-H460, in the experiment on NCI-H522, in the experiment with 786-0, with M14 and in the experiment with SNB-75 was > 100 µM (inactive) in each case. The GI50 in the experiment on CAKI-1, in the experiment with SK-OV-3, in the experiment with UACC-62, in the experiment with CCRF-CEM, in the experiment on SF-539 and in the experiment with DMS-114 was > 100 µM (inactive) in each case. The GI50 is > 100 µM (inactive) in the experiment on U-251, greater than 100 µM with HCT-15, > 100 µM (inactive) with OVCAR-3 and > 100 µM (inactive) in the experiment with HCT-116.

In the case of `COc1cc2cc[n+]3c4cc(OC)c(OC)cc4c(C)cc3c2cc1OC`, the GI50 with TK-10 was > 100 µM (inactive); in the experiment on NCI-H460, > 100 µM (inactive); in the experiment with NCI-H522, > 100 µM (inactive); in the experiment on 786-0, > 100 µM (inactive); with M14, > 100 µM (inactive); in the experiment with SNB-75, 44.7 µM (inactive). The GI50 in the experiment on CAKI-1, in the experiment on SK-OV-3, with UACC-62, with CCRF-CEM, with SF-539 and in the experiment with DMS-114 was > 100 µM (inactive) in each case. The GI50 is 70 µM (inactive) in the experiment on U-251, greater than 100 µM in the experiment with HCT-15, > 100 µM (inactive) with OVCAR-3 and > 100 µM (inactive) in the experiment on HCT-116.
